In the supplement of paper PMC10307832:

Assays:
Assay in all cases: relative viability (nuclei count vs DMSO), 5 days (fraction); higher = more cells survive
[1] = compound: C1=CC2=C(C=C(C(=C2N=C1)O)N=NC3=CC4=C(C=C3)C=C(C=C4)S(=O)(=O)O)S(=O)(=O)O + CC(=O)c1c(C)c2cnc(Nc3ccc(N4CCNCC4)cn3)nc2n(C2CCCC2)c1=O [Palbociclib] (partner 0.5 µM)
Procedure, shortened: (§1)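 One day after seeding in 1536-well plates, lung cancer cell lines were dosed by pin tool. Dosing was either single-drug or a fixed anchor-drug dose plus five library-drug doses (not always all listed) in √10 steps. After 5 days, nuclei were stained in one fix-and-stain step and counted on 4× images, and relative viability is the nuclei count of treated wells over that of vehicle wells, given as the median of duplicate plates.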

[2] = compound: C1=CC2=C(C=C(C(=C2N=C1)O)N=NC3=CC4=C(C=C3)C=C(C=C4)S(=O)(=O)O)S(=O)(=O)O + Nc1nc2[nH]cc(CCc3ccc(C(=O)N[C@@H](CCC(=O)O)C(=O)O)cc3)c2c(=O)[nH]1 [Pemetrexed] (partner 0.2 µM)
Procedure, shortened: as §1

AT-7519 + Alpelisib = compound: O=C(NC1CCNCC1)c1n[nH]cc1NC(=O)c1c(Cl)cccc1Cl [AT-7519] + Cc1nc(NC(=O)N2CCC[C@H]2C(N)=O)sc1-c1ccnc(C(C)(C)C(F)(F)F)c1 [Alpelisib] (partner 2 µM)
Procedure, shortened: as §1

AT-7519 + Decitabine = compound: O=C(NC1CCNCC1)c1n[nH]cc1NC(=O)c1c(Cl)cccc1Cl [AT-7519] + Nc1ncn([C@H]2C[C@H](O)[C@@H](CO)O2)c(=O)n1 [Decitabine] (partner 2 µM)
Procedure, shortened: as §1

| Cell Line | relative viability ([1]; first compound 0.08 µM) | relative viability ([1]; first compound 0.253 µM) | relative viability ([1]; first compound 0.8 µM) | relative viability ([1]; first compound 2.53 µM) | relative viability ([1]; first compound 8 µM) | relative viability ([2]; first compound 0.08 µM) | relative viability ([2]; first compound 0.253 µM) | relative viability ([2]; first compound 0.8 µM) | relative viability ([2]; first compound 2.53 µM) | relative viability ([2]; first compound 8 µM) | relative viability (AT-7519 + Alpelisib; first compound 0.01 µM) | relative viability (AT-7519 + Alpelisib; first compound 0.03162 µM) | relative viability (AT-7519 + Alpelisib; first compound 0.3162 µM) | relative viability (AT-7519 + Alpelisib; first compound 1 µM) | relative viability (AT-7519 + Decitabine; first compound 0.01 µM) | relative viability (AT-7519 + Decitabine; first compound 0.03162 µM) | relative viability (AT-7519 + Decitabine; first compound 0.3162 µM) | relative viability (AT-7519 + Decitabine; first compound 1 µM) |
| --- | --- | --- | --- | --- | --- | --- | --- | --- | --- | --- | --- | --- | --- | --- | --- | --- | --- | --- |
| RERF-LC-KJ | 1.31 | 1.13 | 1.11 | 1.06 | 1.01 | 0.488 | 0.483 | 0.464 | 0.463 | 0.457 | 0.787 | 0.718 | 0.768 | 0.537 | 0.738 | 0.701 | 0.452 | 0.229 |
| LXF-289 | 0.672 | 0.551 | 0.559 | 0.608 | 0.553 | 0.919 | 0.869 | 0.841 | 0.962 | 0.885 | 1.03 | 1.07 | 1.08 | 0.921 | 0.383 | 0.377 | 0.333 | 0.375 |
| PC-14 | 0.653 | 0.52 | 0.548 | 0.597 | 0.474 | 0.127 | 0.129 | 0.145 | 0.132 | 0.11 | 0.839 | 1 | 1 | 0.912 | 0.264 | 0.205 | 0.189 | 0.0859 |
| NCI-H650 | 0.35 | 0.357 | 0.335 | 0.317 | 0.335 | 1.04 | 0.922 | 0.956 | 0.936 | 0.791 | 1.09 | 1 | 1.09 | 1.08 | 0.387 | 0.281 | 0.335 | 0.274 |
| NCI-H1666 | 0.667 | 0.704 | 0.626 | 0.668 | 0.645 | 0.824 | 0.85 | 0.827 | 0.891 | 0.892 | 0.846 | 1.01 | 0.864 | 0.326 | 0.819 | 0.725 | 0.774 | 0.673 |
| NCI-H2085 | 0.492 | 0.481 | 0.451 | 0.486 | 0.463 | 0.923 | 0.864 | 0.846 | 0.903 | 0.92 | 0.899 | 0.926 | 0.941 | 0.656 | 0.621 | 0.561 | 0.532 | 0.508 |
| NCI-H1734 | 0.367 | 0.323 | 0.344 | 0.375 | 0.329 | 0.387 | 0.43 | 0.417 | 0.421 | 0.443 | 0.645 | 0.655 | 0.613 | 0.434 | 0.46 | 0.463 | 0.486 | 0.351 |
| NCI-H2126 | 0.342 | 0.363 | 0.359 | 0.36 | 0.327 | 0.671 | 0.641 | 0.689 | 0.723 | 0.75 | 0.766 | 0.798 | 0.749 | 0.695 | 0.524 | 0.568 | 0.552 | 0.495 |
| EMC-BAC-2 | 0.528 | 0.541 | 0.509 | 0.519 | 0.537 | 0.417 | 0.433 | 0.433 | 0.458 | 0.421 | 0.716 | 0.699 | 0.782 | 0.746 | 0.93 | 0.924 | 0.935 | 0.692 |
| NCI-H1993 | 0.625 | 0.669 | 0.603 | 0.687 | 0.763 | 0.511 | 0.539 | 0.6 | 0.589 | 0.617 | 0.728 | 0.677 | 0.676 | 0.614 | 0.671 | 0.597 | 0.543 | 0.391 |
| NCI-H520 | 0.247 | 0.247 | 0.27 | 0.237 | 0.212 | 0.696 | 0.706 | 0.637 | 0.715 | 0.692 | 0.81 | 0.847 | 0.884 | 0.478 | 0.547 | 0.492 | 0.507 | 0.395 |
| NCI-H647 | 0.413 | 0.404 | 0.386 | 0.387 | 0.37 | 0.174 | 0.189 | 0.182 | 0.183 | 0.168 | 1.13 | 1.07 | 0.967 | 0.53 | 0.379 | 0.37 | 0.416 | 0.237 |
| NCI-H1792 | 0.674 | 0.654 | 0.673 | 0.667 | 0.597 | 1.02 | 0.764 | 0.821 | 0.821 | 0.897 | 0.324 | 0.536 | 0.767 | 0.51 | 0.405 | 0.488 | 0.495 | 0.54 |
| SK-LU-1 | 0.456 | 0.391 | 0.344 | 0.399 | 0.428 | 1.04 | 0.937 | 0.956 | 0.954 | 1.01 | 1.13 | 0.94 | 0.861 | 0.351 | 0.602 | 0.653 | 0.569 | 0.501 |
| NCI-H2009 | 0.221 | 0.22 | 0.245 | 0.214 | 0.192 | 1.07 | 1.05 | 0.89 | 1.04 | 0.988 | 1.14 | 1.12 | 1.15 | 0.668 | 0.395 | 0.406 | 0.446 | 0.309 |
| LOU-NH91 | 0.573 | 0.524 | 0.503 | 0.559 | 0.558 | 0.365 | 0.38 | 0.393 | 0.361 | 0.36 | 0.768 | 0.703 | 0.729 | 0.579 | 0.761 | 0.791 | 0.795 | 0.739 |
| NCI-H2405 | 0.517 | 0.543 | 0.504 | 0.575 | 0.513 | 1.1 | 1.08 | 0.976 | 1.11 | 0.982 | 0.934 | 0.773 | 0.716 | 0.331 | 0.741 | 0.744 | 0.711 | 0.486 |
| LCLC-97TM1 | 0.236 | 0.258 | 0.189 | 0.222 | 0.257 | 0.173 | 0.18 | 0.157 | 0.156 | 0.161 | 0.29 | 0.195 | 0.254 | 0.162 | 0.281 | 0.207 | 0.196 | 0.169 |
| H3255 | 0.303 | 0.313 | 0.334 | 0.344 | 0.313 | 0.545 | 0.576 | 0.559 | 0.556 | 0.57 | 0.712 | 0.678 | 0.833 | 0.519 | 0.721 | 0.58 | 0.573 | 0.57 |
| SK-MES-1 | 0.351 | 0.332 | 0.34 | 0.318 | 0.342 | 0.972 | 0.953 | 0.932 | 0.942 | 0.882 | 0.839 | 0.699 | 0.86 | 0.397 | 0.349 | 0.348 | 0.361 | 0.35 |
| NCI-H1437 | 0.356 | 0.321 | 0.308 | 0.3 | 0.352 | 0.299 | 0.326 | 0.334 | 0.265 | 0.308 | 1.05 | 0.931 | 0.816 | 0.477 | 0.527 | 0.59 | 0.548 | 0.347 |
| LU99A | 0.472 | 0.43 | 0.381 | 0.435 | 0.42 | 0.161 | 0.401 | 0.183 | 0.181 | 0.19 | 0.612 | 0.435 | 0.478 | 0.42 | 0.953 | 0.843 | 0.791 | 0.484 |
| HCC-827 | 0.537 | 0.451 | 0.492 | 0.455 | 0.542 | 0.269 | 0.21 | 0.296 | 0.224 | 0.246 | 1.03 | 0.999 | 1.02 | 0.708 | 0.337 | 0.347 | 0.355 | 0.3 |
| LK-2 | 0.768 | 0.529 | 0.626 | 0.77 | 0.721 | 0.312 | 0.224 | 0.212 | 0.269 | 0.283 | 0.697 | 1.12 | 0.827 | 0.514 | 0.23 | 0.276 | 0.298 | 0.266 |
| HCC-366 | 0.459 | 0.385 | 0.377 | 0.391 | 0.325 | 0.162 | 0.14 | 0.157 | 0.145 | 0.163 | 0.362 | 0.347 | 0.514 | 0.228 | 0.324 | 0.31 | 0.336 | 0.215 |
| BEN | 0.499 | 0.426 | 0.489 | 0.458 | 0.448 | 0.745 | 0.736 | 0.76 | 0.867 | 0.61 | 1.03 | 0.954 | 1.12 | 0.76 | 0.754 | 0.663 | 0.771 | 0.744 |
| NCI-H23 | 0.538 | 0.471 | 0.448 | 0.574 | 0.477 | 0.681 | 0.648 | 0.669 | 0.579 | 0.693 | 0.561 | 0.785 | 0.68 | 0.45 | 0.296 | 0.296 | 0.298 | 0.254 |
| NCI-H1395 | 0.692 | 0.614 | 0.616 | 0.572 | 0.628 | 0.814 | 0.816 | 0.68 | 0.763 | 0.782 | 1.18 | 1.06 | 0.898 | 0.584 | 0.658 | 0.726 | 0.691 | 0.582 |
| 201T | 0.385 | 0.366 | 0.366 | 0.366 | 0.35 | 0.324 | 0.319 | 0.341 | 0.332 | 0.354 | 0.972 | 1.05 | 1.02 | 1.09 | 0.915 | 0.853 | 0.831 | 0.862 |
